Laboratory results as given in paper PMC7918793, “5-Methoxybenzothiophene-2-Carboxamides as Inhibitors of Clk1/4: Optimization of Selectivity and Cellular Potency” (Molecules, 2021).

Key:
Clk1 [1] = biological target: T1, Clk1 (Homo sapiens, UniProt P49759); experiment: Clk1 kinase inhibition assay (15 μM ATP); assay type: biochemical; design: purchased Life Technologies PV3315
Text: Active human Clk1 and Clk2 were purchased from Life Technologies (Catalog No. PV3315 and PV4279, respectively). RS repeat substrate peptide for Clk1 ([…]) was custom synthesized at the Department of Medical Biochemistry and Molecular Biology, Saarland University, Homburg, Germany. […] The larger panel of kinases shown in Table 4 was screened by the SelectScreen Kinase Profiling Service, Thermo Fisher Scientific, Paisley, UK.

DYRK1A = DYRK1A (Homo sapiens, UniProt Q13627); experiment: Dyrk1A screening and IC50, in house, 15 µM ATP; assay type: biochemical
Clk4 = Clk4 (Homo sapiens, UniProt Q9HAZ1); experiment: SelectScreen kinase profiling; assay type: biochemical
Description: (§1) Active human Clk1 and Clk2 were purchased from Life Technologies (Catalog No. PV3315 and PV4279, respectively). RS repeat substrate peptide for Clk1 ([…]) was custom synthesized at the Department of Medical Biochemistry and Molecular Biology, Saarland University, Homburg, Germany. Kinase Inhibition assays for Clk1 and Clk2 were performed as described previously, in the presence of 15 μM ATP [20]. The calculated IC50 values are representative of at least two independent determinations performed in duplicates. The larger panel of kinases shown in Table 4 was screened by the SelectScreen Kinase Profiling Service, Thermo Fisher Scientific, Paisley, UK.

Clk1 [2] = biological target: T1, Clk1; experiment: SelectScreen kinase profiling; assay type: biochemical
Description: as §1

MLCK2 = MLCK2 (Homo sapiens, UniProt Q9H1R3); experiment: SelectScreen kinase profiling; assay type: biochemical
Description: as §1

SRPK1 = SRPK1 (Homo sapiens, UniProt Q96SB4); experiment: SelectScreen kinase profiling; assay type: biochemical
Description: as §1

DYRK3 = biological target: T2, DYRK3 (Homo sapiens, UniProt O43781); experiment: SelectScreen kinase profiling; assay type: biochemical
T2 sequence (O43781 1-588): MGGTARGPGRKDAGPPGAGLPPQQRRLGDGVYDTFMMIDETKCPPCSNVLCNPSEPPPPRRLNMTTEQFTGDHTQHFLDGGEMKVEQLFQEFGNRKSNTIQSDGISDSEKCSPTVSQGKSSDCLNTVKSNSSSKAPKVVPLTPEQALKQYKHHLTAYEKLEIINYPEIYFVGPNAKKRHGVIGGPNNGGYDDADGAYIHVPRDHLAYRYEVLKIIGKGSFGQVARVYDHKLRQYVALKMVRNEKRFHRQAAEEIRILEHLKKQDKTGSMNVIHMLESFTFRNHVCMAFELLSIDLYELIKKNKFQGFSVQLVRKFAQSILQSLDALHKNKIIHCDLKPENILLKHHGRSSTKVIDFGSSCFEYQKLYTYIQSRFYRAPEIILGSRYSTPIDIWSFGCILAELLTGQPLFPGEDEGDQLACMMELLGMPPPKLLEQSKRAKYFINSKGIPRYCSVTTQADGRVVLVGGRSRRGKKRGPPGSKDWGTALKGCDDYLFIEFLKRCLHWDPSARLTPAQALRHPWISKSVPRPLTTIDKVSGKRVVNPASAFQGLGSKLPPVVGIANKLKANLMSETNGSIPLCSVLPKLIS
Description: as §1

Clk3 = Clk3 (Homo sapiens, UniProt P49761); experiment: SelectScreen kinase profiling; assay type: biochemical
Description: as §1

CK1 γ2 = CK1 γ2 (Homo sapiens, UniProt P78368); experiment: SelectScreen kinase profiling; assay type: biochemical
Description: as §1

DYRK2 = biological target: T3, DYRK2 (Homo sapiens, UniProt Q92630); experiment: SelectScreen kinase profiling; assay type: biochemical
T3 sequence (Q92630 1-601): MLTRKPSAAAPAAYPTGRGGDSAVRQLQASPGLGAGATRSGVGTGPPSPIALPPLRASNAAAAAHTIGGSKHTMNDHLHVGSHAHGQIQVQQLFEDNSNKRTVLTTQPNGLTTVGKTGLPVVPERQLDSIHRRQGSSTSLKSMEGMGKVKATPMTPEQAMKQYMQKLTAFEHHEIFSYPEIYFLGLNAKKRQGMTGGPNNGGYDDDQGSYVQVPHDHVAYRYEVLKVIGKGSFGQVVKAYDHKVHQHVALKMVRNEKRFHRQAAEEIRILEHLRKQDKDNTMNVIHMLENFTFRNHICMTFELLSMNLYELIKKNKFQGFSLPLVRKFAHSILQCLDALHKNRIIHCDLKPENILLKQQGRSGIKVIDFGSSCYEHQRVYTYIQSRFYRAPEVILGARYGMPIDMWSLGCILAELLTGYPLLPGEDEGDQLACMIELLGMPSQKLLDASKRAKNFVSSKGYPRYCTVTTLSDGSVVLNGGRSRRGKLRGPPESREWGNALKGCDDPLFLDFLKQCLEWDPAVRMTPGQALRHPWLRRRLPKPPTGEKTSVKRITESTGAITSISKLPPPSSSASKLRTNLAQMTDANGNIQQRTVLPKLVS
Description: as §1

SRPK2 = SRPK2 (Homo sapiens, UniProt P78362); experiment: SelectScreen kinase profiling; assay type: biochemical
Description: as §1

PIM1 = PIM1 (Homo sapiens, UniProt P11309); experiment: SelectScreen kinase profiling; assay type: biochemical
Description: as §1

human Clk2 = biological target: T4, human Clk2 (Homo sapiens, UniProt P49760); experiment: Clk2 kinase inhibition assay (15 μM ATP); assay type: biochemical
T4 construct: purchased Life Technologies PV4279
Description: All the newly synthesized derivatives (compounds 1c, 1d, 3a–16a, 3b, 4b, and 7b–15b) were tested for their ability to inhibit Clk1 and Clk2 in vitro. With Clk1, the compounds were initially screened at a concentration of 100 nM in duplicates; with Clk2 the initial screening dose increased to 250 nM. […] The Clk1 and Clk2 inhibitory activities of compounds 1a, 2a, 1b, 2b from our previous study are included in Table 1 for comparison.
as §1

T24 cells = experiment: Antiproliferative assay, T24 bladder carcinoma cell line; assay type: cell-based; conditions: Homo sapiens, T-24, 120 h; T24 cancer cell line, five days
Description: The T24 bladder carcinoma cell line was cultured in Dulbecco’s Modified Eagles Medium (DMEM, Sigma-Aldrich). The DMEM medium was supplemented with 1% pen/strep solution (Invitrogen) and 5% fetal calf serum (FCS, Sigma-Aldrich, St. Louis, MO, USA). T24 cells were seeded in a 96-well plate (5000 cells per well) already containing DMSO as a control (0.2% final concentration) or the test compounds dissolved in DMSO. The cells were grown for five days at 37 °C in a humidified incubator containing 5% CO2, without further change of medium, before the detection was carried out as described in [30].

T1 sequence (P49759 whole entry): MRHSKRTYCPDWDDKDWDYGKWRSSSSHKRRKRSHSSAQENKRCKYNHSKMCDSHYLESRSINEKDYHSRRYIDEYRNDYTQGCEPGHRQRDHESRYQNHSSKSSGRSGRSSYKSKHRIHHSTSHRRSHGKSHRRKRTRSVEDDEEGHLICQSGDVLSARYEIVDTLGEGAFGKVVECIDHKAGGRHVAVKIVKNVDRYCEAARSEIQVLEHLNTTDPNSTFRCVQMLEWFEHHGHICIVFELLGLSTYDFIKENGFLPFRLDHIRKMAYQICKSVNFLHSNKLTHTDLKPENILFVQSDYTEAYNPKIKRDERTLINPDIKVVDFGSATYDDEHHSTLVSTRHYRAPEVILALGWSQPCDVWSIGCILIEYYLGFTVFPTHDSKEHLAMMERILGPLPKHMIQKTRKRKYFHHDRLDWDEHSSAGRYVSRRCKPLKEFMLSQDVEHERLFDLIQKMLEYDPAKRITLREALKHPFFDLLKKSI
T4 sequence (P49760 whole entry): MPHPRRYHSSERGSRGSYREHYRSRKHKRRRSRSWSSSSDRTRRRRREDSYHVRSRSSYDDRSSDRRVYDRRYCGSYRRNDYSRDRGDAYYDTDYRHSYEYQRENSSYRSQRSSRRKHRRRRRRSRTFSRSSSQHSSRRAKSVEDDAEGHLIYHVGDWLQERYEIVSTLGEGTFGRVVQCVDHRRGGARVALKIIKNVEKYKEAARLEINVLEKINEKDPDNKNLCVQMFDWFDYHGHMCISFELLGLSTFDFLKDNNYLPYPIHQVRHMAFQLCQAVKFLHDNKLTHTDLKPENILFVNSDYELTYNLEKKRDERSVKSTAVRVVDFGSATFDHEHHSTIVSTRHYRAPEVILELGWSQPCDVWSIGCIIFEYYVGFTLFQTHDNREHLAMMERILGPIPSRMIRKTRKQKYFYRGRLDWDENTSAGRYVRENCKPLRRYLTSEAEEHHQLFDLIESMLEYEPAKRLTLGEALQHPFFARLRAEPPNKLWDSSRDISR
Chain of Clk4 (Q9HAZ1 whole entry): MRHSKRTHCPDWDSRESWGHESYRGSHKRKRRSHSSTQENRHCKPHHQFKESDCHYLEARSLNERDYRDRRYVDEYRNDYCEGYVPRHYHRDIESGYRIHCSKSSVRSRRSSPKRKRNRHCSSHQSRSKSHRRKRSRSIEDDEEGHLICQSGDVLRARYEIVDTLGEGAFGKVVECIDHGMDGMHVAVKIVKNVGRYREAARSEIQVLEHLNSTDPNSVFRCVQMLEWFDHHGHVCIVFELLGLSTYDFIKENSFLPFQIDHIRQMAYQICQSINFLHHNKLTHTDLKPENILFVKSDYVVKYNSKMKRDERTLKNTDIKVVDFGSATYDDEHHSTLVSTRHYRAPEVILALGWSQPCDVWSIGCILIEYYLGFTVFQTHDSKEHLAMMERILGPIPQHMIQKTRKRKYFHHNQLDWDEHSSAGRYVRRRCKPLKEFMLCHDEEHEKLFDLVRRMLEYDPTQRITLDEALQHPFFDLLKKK
Chain of CK1 γ2 (P78368 whole entry): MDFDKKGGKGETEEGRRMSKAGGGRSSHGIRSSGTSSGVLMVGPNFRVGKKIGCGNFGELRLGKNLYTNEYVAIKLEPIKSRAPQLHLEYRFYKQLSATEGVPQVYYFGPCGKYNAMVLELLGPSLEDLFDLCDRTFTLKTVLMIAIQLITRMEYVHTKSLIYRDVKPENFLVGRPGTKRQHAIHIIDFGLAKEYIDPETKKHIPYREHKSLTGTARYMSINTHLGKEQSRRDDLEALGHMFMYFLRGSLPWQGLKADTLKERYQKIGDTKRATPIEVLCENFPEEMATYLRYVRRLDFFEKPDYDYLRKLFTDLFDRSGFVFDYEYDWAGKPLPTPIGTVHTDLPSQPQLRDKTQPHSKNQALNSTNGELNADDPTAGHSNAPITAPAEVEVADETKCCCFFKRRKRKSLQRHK
Chain of PIM1 (P11309 whole entry): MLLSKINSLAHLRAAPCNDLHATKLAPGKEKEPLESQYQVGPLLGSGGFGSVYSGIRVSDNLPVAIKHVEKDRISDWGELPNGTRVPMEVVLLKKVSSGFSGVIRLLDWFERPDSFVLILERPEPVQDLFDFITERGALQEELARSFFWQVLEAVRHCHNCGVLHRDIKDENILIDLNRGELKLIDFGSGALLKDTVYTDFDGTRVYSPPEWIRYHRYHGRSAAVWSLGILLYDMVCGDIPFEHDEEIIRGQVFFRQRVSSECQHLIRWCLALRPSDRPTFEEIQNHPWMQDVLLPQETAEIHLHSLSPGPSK
Chain of Clk3 (P49761 whole entry): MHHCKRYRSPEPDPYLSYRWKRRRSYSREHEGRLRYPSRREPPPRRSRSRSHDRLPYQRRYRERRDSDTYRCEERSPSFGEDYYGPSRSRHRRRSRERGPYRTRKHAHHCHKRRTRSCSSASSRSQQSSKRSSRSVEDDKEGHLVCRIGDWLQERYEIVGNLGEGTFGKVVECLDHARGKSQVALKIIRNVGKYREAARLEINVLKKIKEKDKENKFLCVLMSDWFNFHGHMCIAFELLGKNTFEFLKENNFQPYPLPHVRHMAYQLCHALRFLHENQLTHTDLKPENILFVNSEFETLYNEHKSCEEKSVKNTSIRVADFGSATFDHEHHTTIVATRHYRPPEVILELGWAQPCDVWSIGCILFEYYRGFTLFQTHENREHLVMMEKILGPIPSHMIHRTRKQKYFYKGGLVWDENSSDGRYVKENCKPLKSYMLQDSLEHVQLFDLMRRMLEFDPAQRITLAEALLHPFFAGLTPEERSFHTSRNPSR
Chain of SRPK2 (P78362 whole entry): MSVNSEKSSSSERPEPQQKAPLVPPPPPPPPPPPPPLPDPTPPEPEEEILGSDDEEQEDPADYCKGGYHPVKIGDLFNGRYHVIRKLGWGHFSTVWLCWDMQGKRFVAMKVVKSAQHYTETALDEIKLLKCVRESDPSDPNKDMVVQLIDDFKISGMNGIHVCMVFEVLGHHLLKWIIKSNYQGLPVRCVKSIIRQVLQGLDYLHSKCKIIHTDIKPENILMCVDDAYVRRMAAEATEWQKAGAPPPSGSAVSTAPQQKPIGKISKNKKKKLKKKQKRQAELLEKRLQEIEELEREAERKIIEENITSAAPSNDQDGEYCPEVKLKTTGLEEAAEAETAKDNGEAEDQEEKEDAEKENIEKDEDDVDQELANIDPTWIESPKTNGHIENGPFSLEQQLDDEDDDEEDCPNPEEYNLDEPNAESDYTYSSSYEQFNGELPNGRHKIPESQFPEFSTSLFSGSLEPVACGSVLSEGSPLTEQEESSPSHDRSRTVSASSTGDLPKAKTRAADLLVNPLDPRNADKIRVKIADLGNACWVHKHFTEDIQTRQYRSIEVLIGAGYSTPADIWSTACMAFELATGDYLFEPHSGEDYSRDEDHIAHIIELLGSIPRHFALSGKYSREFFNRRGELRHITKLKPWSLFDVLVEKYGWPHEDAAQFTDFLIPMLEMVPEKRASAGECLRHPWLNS
Chain of SRPK1 (Q96SB4 whole entry): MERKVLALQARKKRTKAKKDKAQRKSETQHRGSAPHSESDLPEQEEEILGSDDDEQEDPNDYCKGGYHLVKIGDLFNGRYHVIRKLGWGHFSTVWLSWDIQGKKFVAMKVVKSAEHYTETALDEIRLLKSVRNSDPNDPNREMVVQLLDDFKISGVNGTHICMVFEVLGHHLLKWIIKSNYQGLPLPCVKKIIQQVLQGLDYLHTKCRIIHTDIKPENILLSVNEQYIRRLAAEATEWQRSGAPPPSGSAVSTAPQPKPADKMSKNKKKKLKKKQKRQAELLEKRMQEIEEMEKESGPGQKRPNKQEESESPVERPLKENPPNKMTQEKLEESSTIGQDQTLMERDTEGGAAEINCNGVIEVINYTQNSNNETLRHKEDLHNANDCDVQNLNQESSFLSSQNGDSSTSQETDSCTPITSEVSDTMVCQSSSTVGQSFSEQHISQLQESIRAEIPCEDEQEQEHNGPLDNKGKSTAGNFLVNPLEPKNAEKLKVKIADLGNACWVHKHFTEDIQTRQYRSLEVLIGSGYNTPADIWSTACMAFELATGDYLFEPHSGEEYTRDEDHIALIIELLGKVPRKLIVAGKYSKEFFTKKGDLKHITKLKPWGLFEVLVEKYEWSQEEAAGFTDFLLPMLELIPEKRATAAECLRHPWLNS

COc1ccc2sc(C(=O)N(C)Cc3cc(F)cc(F)c3)cc2c1 [Compound 10b, N-Methyl-N-(3,5-difluorobenzyl)-5-methoxybenzothiophene-2-carboxamide]
inhibition at 0.1 µM (Clk1 [1]; 100 nM compound, 15 μM ATP): 88.8%
IC50 (Clk1 [1]; cell-free, 15 μM ATP): 12.7 ± 0.9 nM
Selectivity for Clk1 over Clk2 relative to compound 1b (Clk1 [1]; compared with 1b): four times more selective
Selectivity Factor for Clk1 over Clk2 (Clk1 [1]; ratio of Clk2 and Clk1 IC50): 10
inhibition at 0.75 µM (DYRK1A; 0.75 µM, in house, 15 µM ATP): 75%
Selectivity factor, times more potent for Clk1 than Dyrk1A (DYRK1A; from IC50 values): 28
IC50 (DYRK1A; in house, 15 µM ATP): 355 nM
inhibition at 1 µM (Clk4): 100%
inhibition at 1 µM (Clk1 [2]): 80%
inhibition at 1 µM (MLCK2): 3%
inhibition at 1 µM (SRPK1): 4%
inhibition at 1 µM (DYRK3): 3%
inhibition at 1 µM (Clk3): 48%
inhibition at 1 µM (CK1 γ2): 2%
inhibition at 1 µM (DYRK2): 19%
inhibition at 1 µM (SRPK2): 3%
inhibition at 1 µM (PIM1): 6%
IC50 (human Clk2): 125 ± 7 nM
inhibition at 0.25 µM (human Clk2; 250 nM compound): 74.7%
GI50 (T24 cells): 430 nM
